“Also recorded” adds a separate entry of the source.
Columns and labels:
Assay type in all cases: cell-based
phospho-PKC (pan) = assay: Western blot of phospho-PKC (pan) in A549 cells
Method: Cancer cells (2-8 million cells) were seeded in 10 cm dishes and grown overnight. For A549 lung cancer cell line, about 3 million cells were seeded. Cells were then treated with different drugs at indicated concentrations (see Table 8) for a period of time up to 48 hours. Cells were lysed in 0.3-0.5 mL of RIPA buffer (Sigma) supplemented with protease inhibitors (Roche) and phosphatase inhibitors (Sigma). Lysates were assayed for protein concentration using BCA kit (Pierce). Normalized amount of lysates (20-30 μg protein/lane) were run on 4-12% NuPage gel (Life Technologies) and the proteins were transferred to the PVDF or nitrocellulose membrane using iBlot® Transfer Stack (Life Technologies). The membranes were probed with primary antibodies shown in Table 8 at 4° C. overnight after blocking with 1×TBST containing 5% non-fat milk. Antibodies from other vendors could also be used in Western blot analysis. After washing 5 times with 1×TBS containing 0.1% Tween20, the membranes were probed with 2nd antibodies Anti-mouse IgG Dylight 800 conjugate or Anti-rabbit IgG DyLight 680 conjugate (1:10000; Cell signaling or similar IR 2nd antibodies from different vendors) at room temperature for one hour. After washing 5 times, the membranes were scanned using Odyssey® Imaging System (Licor Biosciences).

[1] = test system: Cancer cell lines (161 different lines); assay: Proliferation assay, 161 cancer cell lines, 72 hours
Method: Cells were treated for 72 hours instead of 96 hours. Thus, cell numbers from individual cell line were optimized so that cells were ˜70-80% confluent in 72 hours when treated with vehicle only. […] A number of other cancer cell lines from bladder, ovarian, myeloma, prostrate, and renal cancers are also sensitive to K-101A. Most cell lines from liver and lung (SCLC) are resistant to K101A.

[2] = test system: PKCμ and PKCδ in Namalwa, Mino, Raji, Daudi; assay: Activation of PKC isoforms in four lymphoma cell lines, Western blot
Method: Western blot analysis was performed as described in Example 2 and 4.

PKCμ = PKCμ phosphorylation in A549, HCT116, SW620, Panc02.13 cells, Western blot; settings: 30 minutes
Method: Non-cancerous lung fibroblast cell line HFL-1 or cancer cells (2-8 million cells) were seeded in 10 cm dishes and grown overnight so that the cells were about 40-80% confluent before treatment with the compound. Cells were then treated with different drugs at indicated concentrations (see descriptions for FIG. 11 and FIG. 12) for 30 minutes. Cell lysate preparation, protein quantitation, SDS-PAGE, and Western blotting procedures are described in Example 2 and 4. Primary antibodies used in this Example and later Examples of this application are shown in Table A. Secondary antibodies Anti-mouse IgG HRP conjugate or Anti-rabbit IgG HRP conjugate (dilutions from 1:2000-1:10000) were used. Western blot membranes were scanned using Imagequant LAS4000 (GE).

[3] = test system: K-Ras mutant pancreatic, lung, and colon cancer cell lines, leukemia cell lines; assay: Proliferation assays, panel of cancer cell lines (summary statements)
Method: Briefly, cells at a density of 1,000-10,000 cells/well were seeded in 96-well plates and incubated at 37′C for 24 hours. A series of 9 different concentrations of compound stocks (500×) were created by 3-fold serial dilution in DMSO. These compounds were further diluted in culture media and then added to cells so that the final DMSO concentration was 0.2%. After 96 hours of incubation, 50 μL of CellTiter Glo reagent (Promega) was added to each well and luminescence was measured after 10 minutes using EnVision (PerkinElmer). […] The dose range for most compounds was 4.6 nM-30 μM. The dose ranges for some compounds were adjusted downward to 0.46 nM-3 μM or 0.08 nM-0.5 μM or 0.03 nM-0.2 μM. Luminescence from cells treated with […] alone was set as Max and % of inhibition was calculated as follows: Inhibition %=(Max-Sample value)/Max*100. Data was analyzed using XL-fit software (ID Business Solutions Ltd.) and EC50, relative EC50, and % of top inhibition were calculated. The results are shown in Tables 3-6 for pancreatic cancer, lung cancer, colon/gastric cancer, and leukemia cell lines.

## CC(=O)O[C@@]12C[C@@H](C)[C@]3(O)C4C=C(C)C(=O)[C@@]4(O)CC(CO)=C[C@H]3[C@@H]1C2(C)C (stereo partly drawn) [Compound K-101A, Prostratin]
phospho-PKC (pan); 0.5 uM of K-101A
  phospho-PKC (pan) level: without affecting
phospho-PKC (pan); 48 hours, K-103, K-102 at 0.5 μM, K-101A at 2.5 μM
  phospho-PKC (pan) levels: reduction
[1]
  sensitivity of most cell lines from liver and lung (SCLC): resistant
[1]; 161 cell lines
  cell lines showing top inhibition above 30%: Roughly 50 % of the cell lines
  cell lines showing top inhibition above 50%: ~25 % of the cell lines
[1]; breast cancer cell lines
  lines having a top inhibition above 30%: 9 out of 18
[1]; leukemia cell lines
  lines having a top inhibition above 30%: 10 out of 11
[2]
  phosphorylation of PKCμ at Ser744/748 and Ser916 and PKCδ at Thr505: induced in all cell lines
  proportion of phosphorylated PKCμ at Ser916/total PKCμ: much greater in two sensitive cell lines

## C/C=C(/C)C(=O)O[C@H]1C(C)=C[C@]23C(=O)[C@@H](C=C(CO)[C@@H](O)[C@]12O)[C@H]1[C@@H](C[C@H]3C)C1(C)C [Compound K-102, Ingenol-3-angelate, reference compound]
PKCμ
  PKCμ activation, phosphorylation at Ser744/748: observed for all four cancer cell lines
  PKCμ activation, phosphorylation at Ser916: observed primarily in cell lines A549 and Pan 02,13; also recorded: observed primarily in cell lines A549 and Panc02.13
[3]
  potency in proliferation inhibition relative to prostratin: more potent in proliferation inhibition

From US12502369B2, “Methods of cancer treatment” (K-GEN, INC., priority 2015, dated 2025)
